Each structure is given as a SMILES string.

The target in this experiment is T1, Full-length USP19 (Homo sapiens, UniProt O94966).
T1 construct: Full-length USP19 was purchased from Boston Biochem (E-576); purchased Boston Biochem E-576
T1 sequence (O94966 1-1318): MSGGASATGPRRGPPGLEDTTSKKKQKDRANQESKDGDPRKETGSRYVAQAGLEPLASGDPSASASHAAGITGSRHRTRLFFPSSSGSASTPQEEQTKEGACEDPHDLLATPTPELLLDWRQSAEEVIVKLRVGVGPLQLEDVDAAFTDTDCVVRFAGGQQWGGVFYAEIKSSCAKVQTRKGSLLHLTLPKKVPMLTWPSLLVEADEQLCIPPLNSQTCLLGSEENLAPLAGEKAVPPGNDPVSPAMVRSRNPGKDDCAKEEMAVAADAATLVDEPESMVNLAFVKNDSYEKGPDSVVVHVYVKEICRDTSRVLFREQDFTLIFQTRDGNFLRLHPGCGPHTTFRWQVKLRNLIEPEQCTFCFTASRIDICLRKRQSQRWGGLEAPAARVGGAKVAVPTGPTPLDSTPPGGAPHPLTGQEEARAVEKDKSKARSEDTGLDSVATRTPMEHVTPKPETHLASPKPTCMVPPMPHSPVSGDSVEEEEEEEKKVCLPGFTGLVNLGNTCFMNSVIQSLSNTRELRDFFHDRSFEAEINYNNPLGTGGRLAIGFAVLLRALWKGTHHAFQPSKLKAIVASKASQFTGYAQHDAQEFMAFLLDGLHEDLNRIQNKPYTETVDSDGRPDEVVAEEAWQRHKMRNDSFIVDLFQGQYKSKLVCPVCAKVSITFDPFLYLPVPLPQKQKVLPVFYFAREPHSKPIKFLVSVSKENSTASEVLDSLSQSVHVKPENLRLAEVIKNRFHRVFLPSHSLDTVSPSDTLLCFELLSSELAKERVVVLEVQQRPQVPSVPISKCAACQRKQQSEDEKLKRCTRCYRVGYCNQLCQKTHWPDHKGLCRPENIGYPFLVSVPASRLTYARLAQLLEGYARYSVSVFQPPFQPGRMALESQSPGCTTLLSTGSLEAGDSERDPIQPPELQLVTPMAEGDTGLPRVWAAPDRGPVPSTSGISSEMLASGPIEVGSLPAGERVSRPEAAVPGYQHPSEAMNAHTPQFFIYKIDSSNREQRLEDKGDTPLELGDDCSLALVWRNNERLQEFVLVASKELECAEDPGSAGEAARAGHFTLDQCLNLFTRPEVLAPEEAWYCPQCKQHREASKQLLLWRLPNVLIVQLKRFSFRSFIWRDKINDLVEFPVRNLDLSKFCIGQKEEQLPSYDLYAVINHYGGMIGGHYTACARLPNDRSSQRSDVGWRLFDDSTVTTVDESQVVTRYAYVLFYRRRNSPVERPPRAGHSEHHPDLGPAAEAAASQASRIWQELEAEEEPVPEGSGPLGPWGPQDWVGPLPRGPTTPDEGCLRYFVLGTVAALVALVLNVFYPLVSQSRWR
Briefly: USP19 fluorescence polarisation (FP) assay, Ubiquitin-Lys-TAMRA substrate. Format: biochemical. As to conditions: average of at least two duplicate experiments. An outline of the steps: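 Full-length human USP19 (added at 2.5 nM) was preincubated 30 min at RT with inhibitor (serial dilutions 200 μM to 2 μM) in 50 mM HEPES pH 7.4, 150 mM NaCl, 5 mM DTT, 0.05% BSA, 0.05% CHAPS. Ubiquitin-Lys-TAMRA isopeptide substrate (added at 500 nM) started the reaction, and FP (Ex 530/Em 575 nm) was read every 15 min over 90 min. IC50 came from non-linear regression of signal normalised to no-compound control, averaged over at least two duplicate experiments.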
As to `N[C@@H]1CCN(C(=O)N2CCC(Cn3cnc(C4CC4)cc3=O)C3(CCCC3)C2)[C@H](c2ccccc2)C1` (stereo partly drawn) [Example 29, 3-((7-((2S,4R)-4-Amino-2-phenylpiperidine-1-carbonyl)-7-azaspiro[4.5]decan-10-yl)methyl)-6-cyclopropyl-pyrimidin-4(3H)-one], the IC50 is below 10 nM.

Consider `N[C@H]1C[C@@H](c2ccccc2)N(C(=O)N2CC[C@@H](Cn3ccc(-c4ccccc4)cc3=O)C3(CCCC3)C2)C[C@H]1F` (racemic) [Example 85, 1-(((R)-7-((2S,4S,5R)-4-Amino-5-fluoro-2-phenylpiperidine-1-carbonyl)-7-azaspiro[4.5]decan-10-yl)methyl)-4-phenylpyridin-2(1H)-one and 1-(((R)-7-((2S,4S,5S)-4-Amino-5-fluoro-2-phenylpiperidine-1-carbonyl)-7-azaspiro[4.5]decan-10-yl)methyl)-4-phenylpyridin-2(1H)-one], for which the IC50 is below 10 nM.

As for `O=C(N1CC[C@H](Cn2ccc(-c3ccccc3)cc2=O)C2(CCCC2)C1)N1CCNC[C@H]1c1ccccc1` (single isomer, unassigned) [Example 15], the 50% inhibitory concentration (IC50) was 1000 to 20000 nM.

Consider `N[C@@H]1CCN(C(=O)N2CCC(Cn3cnc(-c4ccccc4)cc3=O)CC2)[C@H](c2ccccc2)C1` [Example 9, 3-((1-((2S,4R)-4-Amino-2-phenylpiperidine-1-carbonyl)piperidin-4-yl)methyl)-6-phenylpyrimidin-4(3H)-one], for which the half-maximal inhibitory concentration (IC50) was in the range of 10 to 100 nM.

As to `O=C(N1CC[C@@H](Cn2cnc(-c3ccccc3)cc2=O)C2(CCCC2)C1)N1CC[C@@H](NCCO)C[C@H]1c1ccccc1` [Example 161, 3-(((R)-7-((2S,4R)-4-((2-Hydroxyethyl)amino)-2-phenylpiperidine-1-carbonyl)-7-azaspiro[4.5]decan-10-yl)methyl)-6-phenylpyrimidin-4(3H)-one], the concentration for half-maximal inhibition (IC50) was below 10 nM.

In the case of `CN[C@@H]1CCN(C(=O)N2CC[C@@H](Cn3cnc4ccc(F)cc4c3=O)C3(CCCC3)C2)[C@H](c2ccc(F)cc2F)C1` [Example 191, 3-(((R)-7-((2S,4R)-2-(2,4-Difluorophenyl)-4-(methylamino)piperidine-1-carbonyl)-7-azaspiro[4.5]decan-10-yl)methyl)-6-fluoroquinazolin-4(3H)-one], the half-maximal inhibitory concentration (IC50) is below 10 nM.

Regarding `CC(=O)N[C@@H]1CCN(C(=O)N2CC[C@@H](Cn3ccc(-c4ccccc4)cc3=O)C3(CCCC3)C2)[C@H](c2ccccc2)C1` [Example 93, N-((2S,4R)-1-((R)-10-((2-Oxo-4-phenylpyridin-1(2H)-yl)methyl)-7-azaspiro[4.5]decane-7-carbonyl)-2-phenylpiperidin-4-yl)acetamide], the IC50 lay in the range of 10 to 100 nM.

As to `N[C@@H]1CCN(C(=O)N2CC[C@@H](Cn3cnc4ccc(F)cc4c3=O)C3(CCCC3)C2)[C@H](c2ccccc2)C1` [Example 100, 3-(((R)-7-((2S,4R)-4-Amino-2-phenylpiperidine-1-carbonyl)-7-azaspiro[4.5]decan-10-yl)methyl)-6-fluoroquinazolin-4(3H)-one], the IC50 was below 10 nM.

As for `N[C@H]1C[C@@H](c2ccccc2)N(C(=O)N2CC[C@@H](Cn3cnc(-c4ccccc4)cc3=O)C3(CCCC3)C2)C1` [Example 70, 3-(((R)-7-((2S,4S)-4-Amino-2-phenylpyrrolidine-1-carbonyl)-7-azaspiro[4.5]decan-10-yl)methyl)-6-phenylpyrimidin-4(3H)-one], the IC50 was below 10 nM.

In the case of `CN[C@@H]1CCN(C(=O)N2CC[C@@H](Cn3ccc(-c4ccccc4)cc3=O)C3(CCCC3)C2)[C@H](c2cc(F)ccc2F)C1` [Example 91, 1-(((R)-7-((2S,4R)-2-(2,5-Difluorophenyl)-4-(methylamino)piperidine-1-carbonyl)-7-azaspiro[4.5]decan-10-yl)methyl)-4-phenylpyridin-2(1H)-one], the IC50 was below 10 nM.

Values taken from US20240327382A1 (ALMAC DISCOVERY LIMITED, priority 2021, published 2024).
